Results on 17 compounds are retold here after patent publication US12655160B2, “KRAS G12D inhibitors” (Mirati Therapeutics, Inc., priority 2020, dated 2026).

Where a name gives a salt, the structure may show the parent alone.

This assay has as its target KRas G12D (Homo sapiens, UniProt P01116, G12D). Nature of the assay: KRas G12D Binding Assay (TR-FRET displacement of labeled tracer). Also on record: corresponding to amino acids 1:169, produced at Array BioPharma Inc; biotin (biotinylated). The settings on record: TR-FRET displacement of Cy5 labelled tracer, Biotinylated GDP-loaded KRAS G12D (amino acids 1:169), 60 minute incubation at 22° C. How it is done: This Example illustrates that exemplary compounds of the present invention bind to KRas G12D and are capable of displacing a labeled tracer ligand occupying the KRas G12D binding site. The ability of a compound to bind to KRAS G12D was measured using a TR-FRET displacement assay. Biotinylated GDP-loaded recombinant human KRAS G12D (corresponding to amino acids 1:169, produced at Array BioPharma Inc.) was incubated with a custom-made Cy5 labelled tracer, europium labelled streptavidin and compound (2% DMSO final) in buffer (50 mM HEPES [pH 7.5], 5 mM MgCl2, 0.005% Tween-20 & 1 mM DTT). After a 60 minute incubation at 22° C., the reaction was measured using a PerkinElmer EnVision multimode plate reader via TR-FRET dual wavelength detection, and the percent of control (POC) calculated using a ratiometric emission factor. […] The POC values were fit to a 4-parameter logistic curve and the IC50 value was determined as the concentration where the curve crosses 50 POC.
Background: Time-resolved FRET reads energy transfer from a long-lived donor to a nearby acceptor.

Chain of KRas G12D (P01116 1-169 isoform P01116-2 G12D): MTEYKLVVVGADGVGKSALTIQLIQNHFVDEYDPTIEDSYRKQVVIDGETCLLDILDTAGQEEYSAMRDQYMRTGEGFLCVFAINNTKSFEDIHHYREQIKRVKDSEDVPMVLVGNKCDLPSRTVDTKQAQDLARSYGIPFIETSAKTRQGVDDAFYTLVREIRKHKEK

The term IC50 denotes the concentration that inhibits the measured activity by half. A high value points to weaker potency. The compound `CN(C)C1(CNc2nc(OCC34CCCN3C[C@H](F)C4)nc3c(F)c(-c4cccc5cccc(C6CC6)c45)ncc23)CCC1` (mixture of isomers) [Example 26, 7-(8-cyclopropylnaphthalen-1-yl)-N-((1-(dimethylamino)cyclobutyl)methyl)-8-fluoro-2-(((2S,7aR)-2-fluorotetrahydro-1H-pyrrolizin-7a(5H)-yl)methoxy)pyrido[4,3-d]pyrimidin-4-amine] yielded a concentration for half-maximal inhibition (IC50) of 344 nM. Under `CCc1c(F)ccc2cc(O)cc(-c3ncc4c(NCC5(N(C)C)CCC5)nc(OC[C@@]56CCCN5C[C@H](F)C6)nc4c3F)c12` [Example 57, 4-(4-(((1-(dimethylamino)cyclobutyl)methyl)amino)-8-fluoro-2-(((2R,7aS)-2-fluorohexahydro-1H-pyrrolizin-7a-yl)methoxy)pyrido[4,3-d]pyrimidin-7-yl)-5-ethyl-6-fluoronaphthalen-2-ol] stands 1.1 nM. `Cc1cc2[nH]ncc2c(-c2ncc3c(NCC4(N(C)C)CCC4)nc(OC[C@@]45CCCN4C[C@H](F)C5)nc3c2F)c1Cl` [Example 12, 7-(5-chloro-6-methyl-1H-indazol-4-yl)-N-((1-(dimethylamino)cyclobutyl)methyl)-8-fluoro-2-(((2R,7aS)-2-fluorotetrahydro-1H-pyrrolizin-7a(5H)-yl)methoxy)pyrido[4,3-d]pyrimidin-4-amine bis(2,2,2-trifluoroacetate)] registered an IC50 of 100 nM. Under `CN(C)C1(CNc2nc(OC[C@]34CCCN3[C@@H](COC(=O)N3CCCC3)CC4)nc3c(F)c(-c4cccc5cccc(Cl)c45)ncc23)CCC1` [Example 49, ((3R,7aR)-7a-(((7-(8-chloronaphthalen-1-yl)-4-(((1-(dimethylamino)cyclobutyl)methyl)amino)-8-fluoropyrido[4,3-d]pyrimidin-2-yl)oxy)methyl)hexahydro-1H-pyrrolizin-3-yl)methyl pyrrolidine-1-carboxylate] stands 232 nM; under `CCc1cccc2cc(O)cc(-c3ncc4c(NCC5(N(C)C)CCC5)nc(OC[C@@]56CCCN5C[C@H](F)C6)nc4c3F)c12` [Example 33, 4-(4-(((1-(dimethylamino)cyclobutyl)methyl)amino)-8-fluoro-2-(((2R,7aS)-2-fluorotetrahydro-1H-pyrrolizin-7a(5H)-yl)methoxy)pyrido[4,3-d]pyrimidin-7-yl)-5-ethylnaphthalen-2-ol dihydrochloride], 0.9 nM; under `Oc1cc(-c2ncc3c(NCC4(N5CCOCC5)CCC4)nc(OC[C@@]45CCCN4C[C@H](F)C5)nc3c2F)c2ccccc2c1` [Example 4, 4-(8-fluoro-2-(((2R,7aS)-2-fluorotetrahydro-1H-pyrrolizin-7a(5H)-yl)methoxy)-4-(((1-morpholinocyclobutyl)methyl)amino)pyrido[4,3-d]pyrimidin-7-yl)naphthalen-2-ol], 958 nM. Under `Cc1cccc2cccc(-c3ncc4c(NCC5(N(C)C)CCC5)nc(OC[C@@]56CCCN5C[C@H](F)C6)nc4c3F)c12` [Example 2, N-((1-(dimethylamino)cyclobutyl)methyl)-8-fluoro-2-(((2R,7aS)-2-fluorotetrahydro-1H-pyrrolizin-7a(5H)-yl)methoxy)-7-(8-methylnaphthalen-1-yl)pyrido[4,3-d]pyrimidin-4-amine bis(2,2,2-trifluoroacetate)] stands 269 nM; under `CN(C)C1(CNc2nc(OC[C@@]34CCCN3C[C@H](F)C4)nc3c(F)c(-c4cccc5cccc(Cl)c45)ncc23)CCC1` [Example 23, 7-(8-chloronaphthalen-1-yl)-N-((1-(dimethylamino)cyclobutyl)methyl)-8-fluoro-2-(((2R,7aS)-2-fluorotetrahydro-1H-pyrrolizin-7a(5H)-yl)methoxy)pyrido[4,3-d]pyrimidin-4-amine], 583 nM; under `CCc1c(F)ccc2cccc(-c3ncc4c(NCC5(N(C)C)CCC5)nc(OCC56CCCN5CCC6)nc4c3F)c12` [Example 35, N-((1-(dimethylamino)cyclobutyl)methyl)-7-(8-ethyl-7-fluoronaphthalen-1-yl)-8-fluoro-2-((tetrahydro-1H-pyrrolizin-7a(5H)-yl)methoxy)pyrido[4,3-d]pyrimidin-4-amine bis(2,2,2-trifluoroacetate)], 30.4 nM. Under `Oc1cc(-c2ncc3c(NCC4(O)CNC4)nc(OC[C@@]45CCCN4C[C@H](F)C5)nc3c2F)c2ccccc2c1` [Example 38, 3-(((8-fluoro-2-(((2R,7aS)-2-fluorotetrahydro-1H-pyrrolizin-7a(5H)-yl)methoxy)-7-(3-hydroxynaphthalen-1-yl)pyrido[4,3-d]pyrimidin-4-yl)amino)methyl)azetidin-3-ol bis(2,2,2-trifluoroacetate)] stands 389 nM; under `CN(CC1(N(C)C)CCC1)c1nc(OCC23CCCN2CCC3)nc2c(F)c(-c3cccc4cccc(F)c34)ncc12` [Example 58, N-((1-(dimethylamino)cyclobutyl)methyl)-8-fluoro-7-(8-fluoronaphthalen-1-yl)-2-((hexahydro-1H-pyrrolizin-7a-yl)methoxy)-N-methylpyrido[4,3-d]pyrimidin-4-amine], 9090 nM; under `CN(C)C1(CNc2nc(OCC34CCCN3CCC4)nc3c(F)c(-c4cccc(Cl)c4C4CC4)ncc23)CCC1` [Example 16, 7-(3-chloro-2-cyclopropylphenyl)-N-((1-(dimethylamino)cyclobutyl)methyl)-8-fluoro-2-((tetrahydro-1H-pyrrolizin-7a(5H)-yl)methoxy)pyrido[4,3-d]pyrimidin-4-amine], 146 nM.

As for `CC(C)(O)CNc1nc(OC[C@@]23CCCN2C[C@H](F)C3)nc2c(F)c(-c3cccc4cccc(Cl)c34)ncc12` [Example 15, 1-((7-(8-chloronaphthalen-1-yl)-8-fluoro-2-(((2R,7aS)-2-fluorotetrahydro-1H-pyrrolizin-7a(5H)-yl)methoxy)pyrido[4,3-d]pyrimidin-4-yl)amino)-2-methylpropan-2-ol], the IC50 is 3150 nM. Under `CN1CCC[C@H]1COc1nc(NCC2(N(C)C)CCC2)c2cnc(-c3cc(O)cc4ccccc34)c(F)c2n1` [Example 11, (S)-4-(4-(((1-(dimethylamino)cyclobutyl)methyl)amino)-8-fluoro-2-((1-methylpyrrolidin-2-yl)methoxy)pyrido[4,3-d]pyrimidin-7-yl)naphthalen-2-ol bis(2,2,2-trifluoroacetate)] stands 98 nM. Under `CN(CC1(N(C)C)CCC1)c1nc(OC[C@@]23CCCN2C[C@H](F)C3)nc2c(F)c(-c3cc(O)cc4ccccc34)ncc12` [Example 28] stands 609 nM.

Regarding `CN(C)C1(CNc2nc(OCC34CCCN3CCC4)nc3c(F)c(-c4cccc5cccc(F)c45)ncc23)CCOCC1` [Example 53, N-((4-(dimethylamino)tetrahydro-2H-pyran-4-yl)methyl)-8-fluoro-7-(8-fluoronaphthalen-1-yl)-2-((hexahydro-1H-pyrrolizin-7a-yl)methoxy)pyrido[4,3-d]pyrimidin-4-amine], the IC50 is 7160 nM. Under `CC(C)c1c(Cl)cccc1-c1ncc2c(NCC3(N(C)C)CCC3)nc(OC[C@@]34CCCN3C[C@H](F)C4)nc2c1F` [Example 48, 7-(3-chloro-2-isopropylphenyl)-N-((1-(dimethylamino)cyclobutyl)methyl)-8-fluoro-2-(((2R,7aS)-2-fluorotetrahydro-1H-pyrrolizin-7a(5H)-yl)methoxy)pyrido[4,3-d]pyrimidin-4-amine] stands 1080 nM.
